According to patent US20260166128A1, “HUMAN AMYLIN ANALOG, AND DERIVATIVE THEREOF AND USE THEREOF” (priority 2022, published 2026):
Numbered stars: 1 amine (or outer) side, 2 acyl side, 3 side chain; on linkers, the order of the positions; unused ones are H or OH. Bridge positions count the residues as written; N and C are the ends. Square brackets hold non-standard residues; d marks the D form. Side chains are listed from the residue outwards. Peptide text beside a SMILES is read from it. * marks the point of attachment. C20 diacid = O=C(O)CCCCCCCCCCCCCCCCCCC(=O)*; C18 diacid = O=C(O)CCCCCCCCCCCCCCCCC(=O)*; γGlu = O=C(O)[C@H](CCC(=O)[*:2])N[*:1]; Hyp = O=C(O)[C@@H]1C[C@@H](O)CN1; hArg = N=C(N)NCCCC[C@H](N)C(=O)O; AEEA = NCCOCCOCC(=O)O

Molecular target: T1, human amylin receptor (Homo sapiens, UniProt O60896+P30988)
T1 construct: host or cells: CHO-K1/Ga15/AMY3 cells, further stably transfected with a CRE-luciferase plasmid
T1 sequence (P30988 25-474): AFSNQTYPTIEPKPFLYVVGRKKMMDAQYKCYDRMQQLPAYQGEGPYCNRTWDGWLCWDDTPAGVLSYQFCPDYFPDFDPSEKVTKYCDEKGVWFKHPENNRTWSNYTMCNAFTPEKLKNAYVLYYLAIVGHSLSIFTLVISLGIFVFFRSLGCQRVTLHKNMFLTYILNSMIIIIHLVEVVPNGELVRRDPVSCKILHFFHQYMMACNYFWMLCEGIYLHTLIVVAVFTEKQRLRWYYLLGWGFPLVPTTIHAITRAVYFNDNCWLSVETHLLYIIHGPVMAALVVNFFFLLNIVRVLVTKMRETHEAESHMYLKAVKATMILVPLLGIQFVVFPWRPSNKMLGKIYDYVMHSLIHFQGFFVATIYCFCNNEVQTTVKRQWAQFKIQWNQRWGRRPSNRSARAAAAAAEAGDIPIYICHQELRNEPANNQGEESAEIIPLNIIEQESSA
T1 sequence (O60896 24-148 partner): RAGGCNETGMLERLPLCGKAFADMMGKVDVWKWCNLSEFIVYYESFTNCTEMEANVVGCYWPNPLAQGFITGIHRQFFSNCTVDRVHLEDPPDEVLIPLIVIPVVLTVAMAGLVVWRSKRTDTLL
Assay: Luciferase assay of amylin derivatives in amylin receptor/CRE-luc CHO cell line
Assay type: cell-based
Conditions: CHO-K1/Ga15/AMY3 CRE-luc cells, 24 hours incubation, F12 medium containing 10% FBS; read-out: EC50
Procedure: The experiment was intended to detect the activity or efficacy of the amylin derivatives on a human amylin receptor in vitro by luciferase assay.
50 μL of growth medium (F12 medium containing 10% FBS) was added into each well of a white 96-well plate, and the stably transfected amylin/CRE-lue CHO cells were inoculated into the white 96-well plate at a density of about 20,000 cells/well for activity determination.

| EC50 [nM] | Structure (SMILES) |
| --- | --- |
| 0.011 | CC[C@H](C)[C@H](NC(=O)[C@@H]1CCCN1C(=O)CNC(=O)[C@H](CC(C)C)NC(=O)[C@H](CC(N)=O)NC(=O)[C@H](CCCCNC(=O)COCCOCCNC(=O)CC[C@H](NC(=O)CCCCCCCCCCCCCCCCC(=O)O)C(=O)O)NC(=O)[C@H](CO)NC(=O)[C@H](CO)NC(=O)[C@H](Cc1c[nH]cn1)NC(=O)[C@H](CCCNC(=N)N)NC(=O)[C@H](CC(C)C)NC(=O)[C@H](Cc1ccccc1)NC(=O)[C@H](CC(=O)O)NC(=O)[C@H](C)NC(=O)[C@H](CC(C)C)NC(=O)[C@H](CCCNC(=N)N)NC(=O)[C@H](CCC(N)=O)NC(=O)[C@@H](NC(=O)[C@H](C)NC(=O)[C@@H]1CSSC[C@H](NC(=O)[C@@H](N)CCCNC(=N)N)C(=O)N[C@@H](CC(N)=O)C(=O)N[C@@H]([C@@H](C)O)C(=O)N[C@@H](C)C(=O)N[C@@H]([C@@H](C)O)C(=O)N1)[C@@H](C)O)C(=O)N[C@@H](CC(C)C)C(=O)N1CCC[C@H]1C(=O)N1CCC[C@H]1C(=O)N[C@H](C(=O)N[C@@H](CC(N)=O)C(=O)N[C@H](C(=O)NCC(=O)N[C@@H](CO)C(=O)N[C@@H](CC(N)=O)C(=O)N[C@H](C(=O)N1C[C@H](O)C[C@H]1C(N)=O)[C@@H](C)O)C(C)C)[C@@H](C)O [PD115] (H-RCNTATCATQRLADFLRHSSK([AEEA-γGlu-C18 diacid])NLGPILPPTNVGSNT[Hyp]-NH2; disulfide 2-7) |
| 0.047 | CC[C@H](C)[C@H](NC(=O)[C@@H]1CCCN1C(=O)CNC(=O)[C@H](CC(C)C)NC(=O)[C@H](CC(N)=O)NC(=O)[C@H](CC(N)=O)NC(=O)[C@H](CCCCNC(=O)COCCOCCNC(=O)COCCOCCNC(=O)CC[C@H](NC(=O)CCCCCCCCCCCCCCCCCCC(=O)O)C(=O)O)NC(=O)[C@H](CO)NC(=O)[C@H](Cc1c[nH]cn1)NC(=O)[C@H](CCCNC(=N)N)NC(=O)[C@H](CC(C)C)NC(=O)[C@H](Cc1ccccc1)NC(=O)[C@H](CC(=O)O)NC(=O)[C@H](C)NC(=O)[C@H](CC(C)C)NC(=O)[C@H](CCCNC(=N)N)NC(=O)[C@H](CCC(N)=O)NC(=O)[C@@H](NC(=O)[C@H](C)NC(=O)[C@@H]1CSSC[C@H](NC(=O)[C@@H](N)CCCNC(=N)N)C(=O)N[C@@H](CC(N)=O)C(=O)N[C@@H]([C@@H](C)O)C(=O)N[C@@H](C)C(=O)N[C@@H]([C@@H](C)O)C(=O)N1)[C@@H](C)O)C(=O)N[C@@H](CC(C)C)C(=O)N1CCC[C@H]1C(=O)N1CCC[C@H]1C(=O)N[C@H](C(=O)N[C@@H](CC(N)=O)C(=O)N[C@H](C(=O)NCC(=O)N[C@@H](CO)C(=O)N[C@@H](CC(N)=O)C(=O)N[C@H](C(=O)N1C[C@H](O)C[C@H]1C(N)=O)[C@@H](C)O)C(C)C)[C@@H](C)O [PD095] (H-RCNTATCATQRLADFLRHSK([AEEA-AEEA-γGlu-C20 diacid])NNLGPILPPTNVGSNT[Hyp]-NH2; disulfide 2-7) |
| 0.032 | CC[C@H](C)[C@H](NC(=O)[C@@H]1CCCN1C(=O)CNC(=O)[C@H](Cc1ccccc1)NC(=O)[C@H](CC(N)=O)NC(=O)[C@H](CC(N)=O)NC(=O)[C@H](CO)NC(=O)[C@H](CO)NC(=O)[C@H](Cc1c[nH]cn1)NC(=O)[C@H](CCCNC(=N)N)NC(=O)[C@H](CC(C)C)NC(=O)[C@H](Cc1ccccc1)NC(=O)[C@H](CC(=O)O)NC(=O)[C@H](C)NC(=O)[C@H](CC(C)C)NC(=O)[C@H](CCCNC(=N)N)NC(=O)[C@H](CCC(N)=O)NC(=O)[C@@H](NC(=O)[C@H](C)NC(=O)[C@@H]1CSSC[C@H](NC(=O)[C@@H](N)CCCCNC(=O)CC[C@H](NC(=O)CCCCCCCCCCCCCCCCCCC(=O)O)C(=O)O)C(=O)N[C@@H](CC(N)=O)C(=O)N[C@@H]([C@@H](C)O)C(=O)N[C@@H](C)C(=O)N[C@@H]([C@@H](C)O)C(=O)N1)[C@@H](C)O)C(=O)N[C@@H](CC(C)C)C(=O)N1CCC[C@H]1C(=O)N1CCC[C@H]1C(=O)N[C@H](C(=O)N[C@@H](CC(N)=O)C(=O)N[C@H](C(=O)NCC(=O)N[C@@H](CO)C(=O)N[C@@H](CC(N)=O)C(=O)N[C@H](C(=O)N1C[C@H](O)C[C@H]1C(N)=O)[C@@H](C)O)C(C)C)[C@@H](C)O [PD068] (H-K([γGlu-C20 diacid])CNTATCATQRLADFLRHSSNNFGPILPPTNVGSNT[Hyp]-NH2; disulfide 2-7) |
| 0.06 | CC[C@H](C)[C@H](NC(=O)[C@@H]1CCCN1C(=O)CNC(=O)[C@H](CC(C)C)NC(=O)[C@H](CC(N)=O)NC(=O)[C@H](CC(N)=O)NC(=O)[C@H](CO)NC(=O)[C@H](CCCCNC(=O)CC[C@H](NC(=O)CCCCCCCCCCCCCCCCC(=O)O)C(=O)O)NC(=O)[C@H](Cc1c[nH]cn1)NC(=O)[C@H](CCCNC(=N)N)NC(=O)[C@H](CC(C)C)NC(=O)[C@H](Cc1ccccc1)NC(=O)[C@H](CC(=O)O)NC(=O)[C@H](C)NC(=O)[C@H](CC(C)C)NC(=O)[C@H](CCCNC(=N)N)NC(=O)[C@H](CCC(N)=O)NC(=O)[C@@H](NC(=O)[C@H](C)NC(=O)[C@@H]1CSSC[C@H](NC(=O)[C@@H](N)CCCNC(=N)N)C(=O)N[C@@H](CC(N)=O)C(=O)N[C@@H]([C@@H](C)O)C(=O)N[C@@H](C)C(=O)N[C@@H]([C@@H](C)O)C(=O)N1)[C@@H](C)O)C(=O)N[C@@H](CC(C)C)C(=O)N1CCC[C@H]1C(=O)N1CCC[C@H]1C(=O)N[C@H](C(=O)N[C@@H](CC(N)=O)C(=O)N[C@H](C(=O)NCC(=O)N[C@@H](CO)C(=O)N[C@@H](CC(N)=O)C(=O)N[C@H](C(=O)N1C[C@H](O)C[C@H]1C(N)=O)[C@@H](C)O)C(C)C)[C@@H](C)O [PD100] (H-RCNTATCATQRLADFLRHK([γGlu-C18 diacid])SNNLGPILPPTNVGSNT[Hyp]-NH2; disulfide 2-7) |
| 0.074 | CC[C@H](C)[C@H](NC(=O)[C@@H]1CCCN1C(=O)[C@H](CCCCN)NC(=O)[C@H](CC(C)C)NC(=O)[C@H](CC(N)=O)NC(=O)[C@H](CC(N)=O)NC(=O)[C@H](CO)NC(=O)[C@H](CO)NC(=O)[C@H](Cc1c[nH]cn1)NC(=O)[C@H](CCCNC(=N)N)NC(=O)[C@H](CC(C)C)NC(=O)[C@H](Cc1ccccc1)NC(=O)[C@H](CC(=O)O)NC(=O)[C@H](C)NC(=O)[C@H](CC(C)C)NC(=O)[C@H](CCCNC(=N)N)NC(=O)[C@H](CCC(N)=O)NC(=O)[C@@H](NC(=O)[C@H](C)NC(=O)[C@@H]1CSSC[C@H](NC(=O)[C@H](CCCCN)NC(=O)COCCOCCNC(=O)COCCOCCNC(=O)[C@H](CC(=O)O)NC(=O)CCCCCCCCCCCCCCCCCCC(=O)O)C(=O)N[C@@H](CC(N)=O)C(=O)N[C@@H]([C@@H](C)O)C(=O)N[C@@H](C)C(=O)N[C@@H]([C@@H](C)O)C(=O)N1)[C@@H](C)O)C(=O)N[C@@H](CC(C)C)C(=O)N1CCC[C@H]1C(=O)N1CCC[C@H]1C(=O)N[C@H](C(=O)N[C@@H](CC(N)=O)C(=O)N[C@H](C(=O)NCC(=O)N[C@@H](CO)C(=O)N[C@@H](CC(N)=O)C(=O)N[C@H](C(=O)N1CCC[C@H]1C(N)=O)[C@@H](C)O)C(C)C)[C@@H](C)O [PD193] ({C20 diacid}-D[AEEA][AEEA]KCNTATCATQRLADFLRHSSNNLKPILPPTNVGSNTP-NH2; disulfide 5-10 (inferred)) |
| 0.034 | CC[C@H](C)[C@H](NC(=O)[C@@H]1CCCN1C(=O)[C@H](CCCCN)NC(=O)[C@H](CC(C)C)NC(=O)[C@H](CC(N)=O)NC(=O)[C@H](CC(N)=O)NC(=O)[C@H](CO)NC(=O)[C@H](CO)NC(=O)[C@H](Cc1c[nH]cn1)NC(=O)[C@H](CCCNC(=N)N)NC(=O)[C@H](CC(C)C)NC(=O)[C@H](Cc1ccccc1)NC(=O)[C@H](CC(=O)O)NC(=O)[C@H](C)NC(=O)[C@H](CC(C)C)NC(=O)[C@H](CCCNC(=N)N)NC(=O)[C@H](CCC(N)=O)NC(=O)[C@@H](NC(=O)[C@H](C)NC(=O)[C@@H]1CSSC[C@H](NC(=O)[C@H](CCCCN)NC(=O)[C@H](CC(=O)O)NC(=O)COCCOCCNC(=O)COCCOCCNC(=O)CCCCCCCCCCCCCCCCCCC(=O)O)C(=O)N[C@@H](CC(N)=O)C(=O)N[C@@H]([C@@H](C)O)C(=O)N[C@@H](C)C(=O)N[C@@H]([C@@H](C)O)C(=O)N1)[C@@H](C)O)C(=O)N[C@@H](CC(C)C)C(=O)N1CCC[C@H]1C(=O)N1CCC[C@H]1C(=O)N[C@H](C(=O)N[C@@H](CC(N)=O)C(=O)N[C@H](C(=O)NCC(=O)N[C@@H](CO)C(=O)N[C@@H](CC(N)=O)C(=O)N[C@H](C(=O)N1C[C@H](O)C[C@H]1C(N)=O)[C@@H](C)O)C(C)C)[C@@H](C)O [PD182] ({C20 diacid-AEEA-AEEA}-DKCNTATCATQRLADFLRHSSNNLKPILPPTNVGSNT[Hyp]-NH2; disulfide 3-8) |
| 0.034 | CC[C@H](C)[C@H](NC(=O)[C@@H]1CCCN1C(=O)[C@H](CCCCNC(=O)CC[C@H](NC(=O)CCCCCCCCCCCCCCCCCCC(=O)O)C(=O)O)NC(=O)[C@H](CC(C)C)NC(=O)[C@H](CC(N)=O)NC(=O)[C@H](CC(N)=O)NC(=O)[C@H](CO)NC(=O)[C@H](CO)NC(=O)[C@H](Cc1c[nH]cn1)NC(=O)[C@H](CCCNC(=N)N)NC(=O)[C@H](CC(C)C)NC(=O)[C@H](Cc1ccccc1)NC(=O)[C@H](CC(=O)O)NC(=O)[C@H](C)NC(=O)[C@H](CC(C)C)NC(=O)[C@H](CCCNC(=N)N)NC(=O)[C@H](CCC(N)=O)NC(=O)[C@@H](NC(=O)[C@H](C)NC(=O)[C@@H]1CSSC[C@H](NC(=O)[C@@H](N)CCCCNC(=N)N)C(=O)N[C@@H](CC(N)=O)C(=O)N[C@@H]([C@@H](C)O)C(=O)N[C@@H](C)C(=O)N[C@@H]([C@@H](C)O)C(=O)N1)[C@@H](C)O)C(=O)N[C@@H](CC(C)C)C(=O)N1CCC[C@H]1C(=O)N1CCC[C@H]1C(=O)N[C@H](C(=O)N[C@@H](CC(N)=O)C(=O)N[C@H](C(=O)NCC(=O)N[C@@H](CO)C(=O)N[C@@H](CC(N)=O)C(=O)N[C@H](C(=O)N1C[C@H](O)C[C@H]1C(N)=O)[C@@H](C)O)C(C)C)[C@@H](C)O [PD077] (H-[hArg]CNTATCATQRLADFLRHSSNNLK([γGlu-C20 diacid])PILPPTNVGSNT[Hyp]-NH2; disulfide 2-7) |
